Here are results for one molecule from patent US5521156A, “Cyclic neurokinin A antagonists” (priority 1994, dated 1996).

Where a SMILES comes first, the peptide text is derived from it. [ ]: non-standard residue; d: D form.

For one assay, the system named is mice. The settings on record: mouse, in vivo. On the procedure:
The analgesic potential of the compounds of this invention was measured using a modification of the method of Whittle (Br. J. Pharmacol. 22:2246, 1964). Groups of 5-10 male mice received an intrathecal injection of cyclo[Tyr-trp-Leu-Arg-Trp-Gly] SEQ. ID 6 (0.013-4μg) or ethanol/saline vehicle in a volume of 5 μl. After 5 minutes, mice received an intraperitoneal injection of 0.4 ml acetic acid (0.25% v/v). […] To calculate an ED50 (dose producing analgesia in 50% of the mice), four or more doses of compound were tested and the results subjected to quantal analysis with an appropriate computer program.

For assay [1], the target named is T1, human jejunal NK-2 receptor (Homo sapiens, UniProt P21452).
T1 construct: expressed in transfected cells; host or cells: HSKR-1 (mouse 3T3 fibroblasts)
T1 sequence (P21452 1-398): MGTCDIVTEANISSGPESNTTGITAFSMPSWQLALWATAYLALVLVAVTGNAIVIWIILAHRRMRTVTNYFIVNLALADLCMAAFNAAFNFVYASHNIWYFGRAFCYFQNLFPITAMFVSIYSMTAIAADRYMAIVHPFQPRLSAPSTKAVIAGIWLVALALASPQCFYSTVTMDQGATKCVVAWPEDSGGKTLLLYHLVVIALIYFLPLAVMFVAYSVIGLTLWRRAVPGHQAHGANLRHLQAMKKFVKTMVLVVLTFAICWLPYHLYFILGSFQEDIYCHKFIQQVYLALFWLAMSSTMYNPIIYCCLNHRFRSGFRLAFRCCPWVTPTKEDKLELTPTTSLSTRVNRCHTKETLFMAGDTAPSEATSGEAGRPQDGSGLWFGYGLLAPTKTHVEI
The experiment in a line: NK-2 receptor binding (125I-neurokinin A) in HSKR-1 cell membranes. As to conditions: HSKR-1 cells (mouse 3T3 fibroblasts expressing human jejunal NK-2 receptor); 0.1 nM 125I-iodohistidyl-1-neurokinin A; mean ± S.E.M. On the procedure: Receptor binding assays were performed in crude tissue membranes. The NK-1 receptor binding affinity of proposed tachykinin antagonists was evaluated in guinea pig lungs (Keystone Biologicals, Cleveland, OH, kept frozen at -80° C. until use). Affinity for the NK-2 receptor was evaluated in HSKR-1 cells which are mouse 3T3 fibroblasts expressing the human jejunal NK-2 receptor. Tissues or cells were homogenized with a Polytron in 15 volumes of 50 mM Tris-HCl buffer (pH 7.4, 4° C.) containing 120 mM NaCl and 5 mM KCl and centrifuged at 48,000×g for 12 min. at 4° C. The pellet was resuspended in 15 volumes of 50 mM Tris-HCl buffer containing 10 mM EDTA and 300 mM KCl then set on ice for 30 min. The suspension was cetrifuged as above and the pellet washed by resuspension and cetrifugation two additional times in 50 mM Tris-HCl buffer (pH 7.4, 4° C.). The final pellet was resuspended in a concentration of 20 mg/ml in incubation buffer then kept at room temperature for at least 15 min prior to use. Receptor binding was initiated by addition of 250 μl membrane preparation (final protein concentration; lungs=286 μg/tube, HSKR-1 cells=100 μg/tube) in duplicate to 0.1 nM of the following radioligands: for NK-1 receptor assays, ^125 I-Bolton-Hunter Lys-3 labeled substance P (New England Nuclear, specific activity, 2200 Ci/mmol); for NK-2 receptor assays, ^125 iodohistidyl-1-neurokinin A (Amersham, specific activity, 2000 Ci/mmol) in a final volume of 500 μl of buffer containing 50 mM Tris-HCl (pH 7.4 at room temperature), 0.1% bovine serum albumin, 2 mM MnCl2, 40 μg/ml bacitracin, 4 μg/ml leupeptin and chymostatin, 1 μM thiorphan and various doses of the tachykinin antagonists. Incubations were performed at room temperature for 90 min (NK-1 receptor assays) or 2 hr (NK-2 receptor assays); binding was terminated by addition of 50 mM Tris-HCl buffer (pH 7.4, 4° C.) and filtration under vacuum through GF/B filters presoaked with 0.1% polyethyleneimine (NK-1 receptor assays) or 0.5% bovine serum albumin (NK-2 receptor assays). Nonspecific binding was defined as binding in the presence of 1 μM substance P (NK-1 receptor assays) or neurokinin A (NK-2 receptor assays) (Peptides International, Inc., Louisville, Ky.). Specific binding was calculated by subtracting nonspecific binding from total binding and corresponded to 70-90% of total binding. Data were analyzed and IC50 values generated by nonlinear regression using an iterative curve fitting program (GraphPAD Inplot, San Diego, Calif.). Protein was determined by the method of Lowry.

Regarding `CC(C)C[C@@H]1NC(=O)[C@@H](Cc2c[nH]c3ccccc23)NC(=O)[C@H](Cc2ccc(O)cc2)NC(=O)CNC(=O)[C@H](Cc2c[nH]c3ccccc23)NC(=O)[C@H](CCCNC(=N)N)NC1=O` [cyclo[Tyr--trp--Leu--Arg--Trp--Gly], cyclo[Tyr-trp-Leu-Arg-Trp-Gly]] (cyclo(GY[dW]LRW)), the “ED50 (dose producing analgesia in 50% of the mice)” value with mice came to 0.18 µg. Besides, the IC50 in assay [1] was determined as 6.79 ± 0.69 nM.

Usually IC50 stands for the midpoint of a concentration-inhibition curve. Read a low IC50 as greater potency.
